Values belong to the compound of their own block, whether it stands above or below them.
Test: Acyl group migration (rearrangement) of pro-drug in DMSO-d6/buffer solution monitored by 19F-NMR
Format: physicochemical
Description: A compound of formula (I) OR (X) (5 mg) is dissolved in DMSO-d6 (500 μL) and either pH 4 buffer solution (500 μL, potassium hydrogen phthalate buffer) or pH 7 buffer solution (500 μL, sodium and potassium phosphate buffer) is added. The sample is then heated to 40° C. The O-acyl or N-acyl to N-terminal N-acyl migration is monitored by observing the change in chemical shift for the aromatic fluorines using ^19F-NMR. (Fluorine shifts associated with the desired migration were confirmed by spiking with authentic analogue). The sample is analyzed by ^19F-NMR at approxiamately 0, 1.5, 3, 24, 48, and 144 hours. The amount of O-acyl pro-drug, N-acyl pro-drug, and desired migration product at each time point are assigned by integrating the corresponding NMR signal.
N˜1˜-[(2R,3S)-3-amino-4-(3,5-difluorophenyl)-2-hydroxybutyl]-5-(1,3-oxazol-2-yl)-N˜3˜,N˜3˜-dipropyl-N˜1˜-[3-(trifluoromethyl)benzyl]isophthalamide hydrochloride (PREPARATION 7, 5 mg) is dissolved in DMSO-d6 (500 μL) and pH 4 buffer solution (500 μL, potassium hydrogen phthalate buffer) is added. The sample is then heated to 40° C. The N-acyl to N-terminal N-acyl migration is monitored by observing the change in chemical shift for the aromatic fluorines using ^19F-NMR. (Fluorine shifts for the desired migration product in the presence of buffer was confirmed by spiking with authentic migration product, N^1-((1S,2R)-1-(3,5-difluorobenzyl)-2-hydroxy-3-{[3-(trifluoromethyl)benzyl]amino}propyl)-5-(1,3-oxazol-2-yl)-N^3,N^3-dipropylisophthalamide.) NMR data is collected at 0, 1, 3, 25, 48, 96, and 144 hours. The amount of N-acyl pro-drug and desired migration product present at each time point is assigned by integrating the corresponding NMR signal.
The following examples illustrate the solution acyl group migration of compounds of the formulae (I) and (X) as observed by ^19F NMR spectroscopy. Data were collected as described in Example 1, above.

HEA product (% present) (pH 4, 40° C., time 0 hr): 0% | N-acyl prodrug (% present) (pH 4, 40° C., time 0 hr): 0% | O-acyl pro-drug (% present) (pH 4, 40° C., time 0 hr): 100% | HEA product (% present) (pH 4, 40° C., time 1.5 hr): 54% | N-acyl prodrug (% present) (pH 4, 40° C., time 1.5 hr): 14% | O-acyl pro-drug (% present) (pH 4, 40° C., time 1.5 hr): 32% | HEA product (% present) (pH 4, 40° C., time 3 hr): 74% | N-acyl prodrug (% present) (pH 4, 40° C., time 3 hr): 18% | O-acyl pro-drug (% present) (pH 4, 40° C., time 3 hr): 8% | HEA product (% present) (pH 4, 40° C., time 30 hr): 79% | N-acyl prodrug (% present) (pH 4, 40° C., time 30 hr): 21% | O-acyl pro-drug (% present) (pH 4, 40° C., time 30 hr): 0% | HEA product (% present) (pH 4, 40° C., time 54 hr): 80% | N-acyl prodrug (% present) (pH 4, 40° C., time 54 hr): 20% | O-acyl pro-drug (% present) (pH 4, 40° C., time 54 hr): 0% | HEA product (% present) (pH 4, 40° C., time 126 hr): 86% | N-acyl prodrug (% present) (pH 4, 40° C., time 126 hr): 14% | O-acyl pro-drug (% present) (pH 4, 40° C., time 126 hr): 0% | HEA product (% present) (pH 7, 40° C., time 0 hr): 0% | N-acyl prodrug (% present) (pH 7, 40° C., time 0 hr): 0% | O-acyl pro-drug (% present) (pH 7, 40° C., time 0 hr): 100% | HEA product (% present) (pH 7, 40° C., time 1.5 hr): 34% | N-acyl prodrug (% present) (pH 7, 40° C., time 1.5 hr): 66% | O-acyl pro-drug (% present) (pH 7, 40° C., time 1.5 hr): 0% | HEA product (% present) (pH 7, 40° C., time 7 hr): 41% | N-acyl prodrug (% present) (pH 7, 40° C., time 7 hr): 59% | O-acyl pro-drug (% present) (pH 7, 40° C., time 7 hr): 0% | HEA product (% present) (pH 7, 40° C., time 24 hr): 57% | N-acyl prodrug (% present) (pH 7, 40° C., time 24 hr): 43% | O-acyl pro-drug (% present) (pH 7, 40° C., time 24 hr): 0% | HEA product (% present) (pH 7, 40° C., time 48 hr): 73% | N-acyl prodrug (% present) (pH 7, 40° C., time 48 hr): 27% | O-acyl pro-drug (% present) (pH 7, 40° C., time 48 hr): 0% | HEA product (% present) (pH 7, 40° C., time 144 hr): 84% | N-acyl prodrug (% present) (pH 7, 40° C., time 144 hr): 16% | O-acyl pro-drug (% present) (pH 7, 40° C., time 144 hr): 0%
SMILES: CCCN(CCC)C(=O)c1cc(C(=O)O[C@H](CNCc2cccc(C(F)(F)F)c2)[C@@H](N)Cc2cc(F)cc(F)c2)cc(-c2ncco2)c1.Cl.Cl [Preparation 18, (1R,2S)-2-amino-3-(3,5-uorophenyl)-1-({[3-(trifluoromethyl)benzyl]amino}methyl)propyl 3-[(dipropylamino)carbonyl]-5-(1,3-oxazol-2-yl)benzoate dihydrochloride]

HEA product (% present) (pH 4, 40° C., time 0 hr): 0% | N-acyl prodrug (% present) (pH 4, 40° C., time 0 hr): 100% | O-acyl pro-drug (% present) (pH 4, 40° C., time 0 hr): 0% | HEA product (% present) (pH 4, 40° C., time 1 hr): 0% | N-acyl prodrug (% present) (pH 4, 40° C., time 1 hr): 100% | O-acyl pro-drug (% present) (pH 4, 40° C., time 1 hr): 0% | HEA product (% present) (pH 4, 40° C., time 3 hr): 0% | N-acyl prodrug (% present) (pH 4, 40° C., time 3 hr): 100% | O-acyl pro-drug (% present) (pH 4, 40° C., time 3 hr): 0% | HEA product (% present) (pH 4, 40° C., time 24 hr): 3% | N-acyl prodrug (% present) (pH 4, 40° C., time 24 hr): 97% | O-acyl pro-drug (% present) (pH 4, 40° C., time 24 hr): 0% | HEA product (% present) (pH 4, 40° C., time 48 hr): 5% | N-acyl prodrug (% present) (pH 4, 40° C., time 48 hr): 95% | O-acyl pro-drug (% present) (pH 4, 40° C., time 48 hr): 0% | HEA product (% present) (pH 4, 40° C., time 96 hr): 8% | N-acyl prodrug (% present) (pH 4, 40° C., time 96 hr): 92% | O-acyl pro-drug (% present) (pH 4, 40° C., time 96 hr): 0% | HEA product (% present) (pH 7, 40° C., time 0 hr): 0% | N-acyl prodrug (% present) (pH 7, 40° C., time 0 hr): 100% | O-acyl pro-drug (% present) (pH 7, 40° C., time 0 hr): 0% | HEA product (% present) (pH 7, 40° C., time 1 hr): 3% | N-acyl prodrug (% present) (pH 7, 40° C., time 1 hr): 97% | O-acyl pro-drug (% present) (pH 7, 40° C., time 1 hr): 0% | HEA product (% present) (pH 7, 40° C., time 3 hr): 9% | N-acyl prodrug (% present) (pH 7, 40° C., time 3 hr): 91% | O-acyl pro-drug (% present) (pH 7, 40° C., time 3 hr): 0% | HEA product (% present) (pH 7, 40° C., time 24 hr): 40% | N-acyl prodrug (% present) (pH 7, 40° C., time 24 hr): 60% | O-acyl pro-drug (% present) (pH 7, 40° C., time 24 hr): 0% | HEA product (% present) (pH 7, 40° C., time 48 hr): 63% | N-acyl prodrug (% present) (pH 7, 40° C., time 48 hr): 37% | O-acyl pro-drug (% present) (pH 7, 40° C., time 48 hr): 0% | HEA product (% present) (pH 7, 40° C., time 96 hr): 81% | N-acyl prodrug (% present) (pH 7, 40° C., time 96 hr): 19% | O-acyl pro-drug (% present) (pH 7, 40° C., time 96 hr): 0%
SMILES: CCCN(CCC)C(=O)c1cc(C(=O)N(Cc2cccc(CC)c2)C[C@@H](O)[C@@H](N)Cc2cc(F)cc(F)c2)cc(-c2ncco2)c1.Cl [Preparation 19, N^1-[(2R,3S)-3-amino-4-(3,5-difluorophenyl)-2-hydroxybutyl]-N\(u)1\(d)-(3-ethylbenzyl)-5-(1,3-oxazol-2-yl)-N^3,N^3-dispropylisophthalamide hydrochloride]
